Measured values taken from patent publication US20080242688A1, “Method 741” (ASTRAZENECA AB, priority 2007, published 2008).
Values joined by “and” are separate entries in the source; they are usually repeats but may differ in a detail not shown here. Identical values can stand only once.

Key:
[1] = Intestinal transit (charcoal meal, glass bead); conditions: in vivo; rat, oral; read-out: NOAEL on intestinal motility
Method: Effects of AZD0328 on small intestinal and colorectal motility were investigated in rats using the charcoal meal test and the glass bead test, respectively (Table 3). In the first part, evaluating intestinal transit, a test meal containing charcoal as a non-absorbable marker was administered to rats. In the second part, effects of oral administration of AZD0328 on colorectal transit time was evaluated.

rhesus monkeys = test: Spatial delayed response (SDR) task; assay type: in vivo, rhesus monkey
Excerpt: AZD0328 at low doses improved performance in the spatial delayed response test in monkeys. Rhesus monkeys were trained in a spatial delayed response task. In this task, food-motivated monkeys observed one of several spatially-displaced wells being baited with a food reward. After a brief delay during which a shutter is drawn and the wells are covered, the monkey must indicate the position of the baited well to receive the food reward. The performance of groups of monkeys was titrated into a narrow range by changing the number of wells or the duration of the delay. Monkeys were tested extensively to establish baseline performance before being administered drug or vehicle. Intramuscular administration of 0.00048 or 0.0016 mg/kg AZD0328 evoked a sustained increase in the percentage of correct responses monkeys made when compared with responses of vehicle-treated monkeys. […] Higher doses (≧0.016 mg/kg or higher) and lower doses (≦0.00016 mg/kg) had either no effect on monkeys or transiently impaired their performance of the task.
Rhesus monkey were trained in a spatial delayed response task. Middle doses of AZD0328 (0.0016 and 0.00048 mg/kg im) evoked a sustained improvement in rhesus monkey performance, while a higher dose (0.48 mg/kg) and a lower dose (0.000016 mg/kg) transiently impaired performance of the task (Table 2).

[2] = Multiple dose PK/TK, minipig; assay type: in vivo; conditions: capsules fasted; for AUC / Cmax / Tmax: both sexes, Gottingen, minipig, in vivo, po
Excerpt: This section provides a summary of the pharmacokinetic and metabolism properties of AZD0328 derived from in vivo studies. […] The derived PK/TK parameters from these studies are presented in Table 4 for single dose studies (DMR4, 0619LR, 20030191PCR, DMO16, DMB10, DMW12, 50190, 0190DD and 03.330/1), and are presented in Table 5 multiple dose PK/TK studies (DMR4, 0612AR, DMB15, 50190, 0190DD and 0295AD).

adrenergic α2B receptor = adrenergic α2B receptor (Homo sapiens, UniProt P18089); test: Selectivity panel, radioligand binding; conditions: read-out: inhibition of specific radioligand binding
adrenergic α2B receptor, sequence (P18089 whole entry): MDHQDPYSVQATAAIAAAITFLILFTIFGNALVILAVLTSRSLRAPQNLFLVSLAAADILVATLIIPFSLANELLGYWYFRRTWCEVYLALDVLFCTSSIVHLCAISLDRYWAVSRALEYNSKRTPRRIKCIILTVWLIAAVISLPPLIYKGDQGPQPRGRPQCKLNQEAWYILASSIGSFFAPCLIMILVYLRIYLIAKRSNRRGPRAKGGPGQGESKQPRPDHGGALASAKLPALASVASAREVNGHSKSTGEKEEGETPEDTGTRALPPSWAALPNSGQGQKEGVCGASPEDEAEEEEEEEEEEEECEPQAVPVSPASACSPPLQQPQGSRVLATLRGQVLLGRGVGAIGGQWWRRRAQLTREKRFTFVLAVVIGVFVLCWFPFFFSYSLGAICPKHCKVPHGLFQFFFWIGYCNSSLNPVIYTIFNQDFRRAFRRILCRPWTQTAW
Method: (§1) Secondary effects of AZD0328 on targets other than the α7 nicotinic acetylcholine receptor (nAChR) were investigated in vitro. Selectivity against a broad panel of 129 receptors, ion channels, nuclear hormone receptors, transporters and enzymes was tested using radioligand binding assays (Report no. GPW003).

[3] = test system: central nicotinic receptors; test: Selectivity panel, radioligand binding; conditions: 10 μM
Method: as §1

[4] = target: serotonergic 5-HT3 receptor (Homo sapiens, UniProt P46098); test: Selectivity panel, radioligand binding; conditions: read-out: inhibition of specific radioligand binding
serotonergic 5-HT3 receptor, sequence (P46098 24-478): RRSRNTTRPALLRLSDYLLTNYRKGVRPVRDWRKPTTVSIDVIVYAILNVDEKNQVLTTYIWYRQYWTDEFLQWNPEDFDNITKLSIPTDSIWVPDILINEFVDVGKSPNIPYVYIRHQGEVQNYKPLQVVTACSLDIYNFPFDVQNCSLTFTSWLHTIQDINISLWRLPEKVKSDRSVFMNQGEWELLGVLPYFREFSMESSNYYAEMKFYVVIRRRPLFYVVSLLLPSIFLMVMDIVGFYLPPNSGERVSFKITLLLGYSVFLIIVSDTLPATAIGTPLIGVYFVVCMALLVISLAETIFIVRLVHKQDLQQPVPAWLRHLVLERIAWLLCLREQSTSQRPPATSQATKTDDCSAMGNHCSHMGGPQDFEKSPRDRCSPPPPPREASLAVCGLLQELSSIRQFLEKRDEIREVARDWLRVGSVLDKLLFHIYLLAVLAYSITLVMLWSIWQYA
Method: as §1

muscarinic M3 receptor = muscarinic M3 receptor (Homo sapiens, UniProt P20309); test: Selectivity panel, radioligand binding; conditions: read-out: inhibition of specific radioligand binding
muscarinic M3 receptor, sequence (P20309 whole entry): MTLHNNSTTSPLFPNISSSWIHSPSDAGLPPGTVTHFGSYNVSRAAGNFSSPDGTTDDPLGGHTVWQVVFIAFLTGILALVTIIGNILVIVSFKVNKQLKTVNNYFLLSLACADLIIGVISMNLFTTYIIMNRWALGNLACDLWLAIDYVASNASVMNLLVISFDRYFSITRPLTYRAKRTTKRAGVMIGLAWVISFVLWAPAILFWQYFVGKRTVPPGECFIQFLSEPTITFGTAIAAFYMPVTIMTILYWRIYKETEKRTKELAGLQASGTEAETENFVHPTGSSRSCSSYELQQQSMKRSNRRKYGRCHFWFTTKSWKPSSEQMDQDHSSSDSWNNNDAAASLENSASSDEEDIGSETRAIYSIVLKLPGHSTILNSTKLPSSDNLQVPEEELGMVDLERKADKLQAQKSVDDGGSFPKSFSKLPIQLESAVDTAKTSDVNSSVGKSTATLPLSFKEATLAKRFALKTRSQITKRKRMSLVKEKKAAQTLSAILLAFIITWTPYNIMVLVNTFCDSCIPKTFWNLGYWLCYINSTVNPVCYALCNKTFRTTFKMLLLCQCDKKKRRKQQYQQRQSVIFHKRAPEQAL
Method: as §1

muscarinic M5 receptor = muscarinic M5 receptor (Homo sapiens, UniProt P08912); test: Selectivity panel, radioligand binding; conditions: read-out: inhibition of specific radioligand binding
muscarinic M5 receptor, sequence (P08912 whole entry): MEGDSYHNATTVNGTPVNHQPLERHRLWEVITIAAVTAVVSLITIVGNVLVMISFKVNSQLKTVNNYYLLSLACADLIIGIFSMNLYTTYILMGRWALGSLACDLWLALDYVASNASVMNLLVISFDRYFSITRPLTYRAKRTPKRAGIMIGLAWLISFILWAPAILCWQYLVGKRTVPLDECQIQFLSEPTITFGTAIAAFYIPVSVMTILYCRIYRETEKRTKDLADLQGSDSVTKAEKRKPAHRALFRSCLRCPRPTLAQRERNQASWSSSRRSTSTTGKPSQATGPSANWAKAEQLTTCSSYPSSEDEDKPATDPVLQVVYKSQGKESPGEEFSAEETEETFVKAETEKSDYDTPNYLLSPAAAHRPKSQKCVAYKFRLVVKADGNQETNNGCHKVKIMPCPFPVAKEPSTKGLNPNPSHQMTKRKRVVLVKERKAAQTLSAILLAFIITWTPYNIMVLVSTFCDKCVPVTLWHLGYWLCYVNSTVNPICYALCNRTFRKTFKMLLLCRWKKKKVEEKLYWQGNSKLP
Method: as §1

[5] = Cardiovascular/ECG telemetry in dogs; assay type: in vivo; conditions: in vivo, dog, low dose group, read-out: total Cmax
Method: (§2) The cardiovascular effects of orally administered AZD0328 were assessed dogs implanted with telemetry transmitters (Table 3). The main purpose of the study was to evaluate effects on the QT interval of the ECG during a 7-days dosing period followed by 5 days of recovery, thus enabling assessment of any accumulation of effects and the recovery back to baseline. Systolic, diastolic and mean arterial blood pressure, heart rate, lead II ECG and core body temperature were recorded continuously. The PR, QRS and QT intervals of the ECG were measured, and the QT interval was corrected for changes in heart rate using the method of Van de Water (QTcV).

dogs = test: Cardiovascular/ECG telemetry in dogs; assay type: in vivo; conditions: dog, oral
Method: as §2

Ames test = test: Ames test
Excerpt: The genotoxic potential of AZD0328 has been evaluated in the Ames test and in the Mouse lymphoma test. AZD0328 was not mutagenic in either of these tests.

[6] = Allometric scaling / predicted human pharmacokinetics
[7] = 73.1 mg/kg, minipig 2F+2M, 50190, 73.1 mg/kg (338 μmol/kg), day 1
[8] = 73.1 mg/kg, minipig 2F+2M, 50190, 73.1 mg/kg (338 μmol/kg), day 7
[9] = 422 mg/kg, minipig 2F+2M, 50190, 422 mg/kg (1951 μmol/kg), day 7
[10] = allometric scaling of in vivo data from rat and monkey

With c1cnc2c(c1)C[C@@]1(CN3CCC1CC3)O2 [AZD0328, (R)-Spiro[1-azabicyclo[2.2.2]octane-3,2′(3′H)-furo[2,3-b]pyridine]] the NOAEL [1] was 5.6 mg/kg, the “duration of improved SDR performance after a single dose” value (rhesus monkeys; four of nine monkeys, middle doses (0.0016 and 0.00048 mg/kg im)) was “more than one month” and the “higher doses with no effect or transiently impaired SDR performance” value (rhesus monkeys; rhesus monkeys) was no less than 0.016 mg/kg. The “lower doses with no effect or transiently impaired SDR performance” value (rhesus monkeys; rhesus monkeys) was no more than 0.00016 mg/kg, the “percent correct responses (SDR)” value (rhesus monkeys; rhesus monkeys, 0.016 mg/kg) was “non-significant increase” and the AUC [2, 7] was 3140 ng·h/mL and 14.5 µM·h. For the same compound, the Cmax [2, 7] was 379 ng/mL and 1.75 µM, the Tmax [2, 7] was 2 to 6 h and the AUC [2, 8] was 4610 ng·h/mL and 21.3 µM·h. The Cmax [2, 8] was 794 ng/mL and 3.67 µM, the Tmax [2, 8] was 0.5 to 4 h and the AUC [2, 9] was 25700 ng·h/mL to 27700 ng·h/mL and 119 µM·h to 128 µM·h. The Cmax [2, 9] was 1420 ng/mL to 1570 ng/mL and 6.57 µM to 7.24 µM, the Tmax [2, 9] was 12 h and the AUC/dose ([2]; minipig 2F+2M, 50190, 73.1 mg/kg (338 μmol/kg), day 1) was 0.0429 ± 0.0275. For the same compound, the AUC/dose ([2]; minipig 2F+2M, 50190, 73.1 mg/kg (338 μmol/kg), day 7) was 0.0630 ± 0.0288, the AUC/dose ([2]; minipig 2F+2M, 50190, 422 mg/kg (1951 μmol/kg), day 7) was 0.0610-0.0656 and the inhibition at 10 µM (adrenergic α2B receptor) was greater than 50%. The “inhibition of specific radioligand binding” value [3] was greater than 50%, the inhibition at 10 µM [4] was greater than 50% and the inhibition at 10 µM (muscarinic M3 receptor) was greater than 50%. For the same compound, the inhibition at 10 µM (muscarinic M5 receptor) was greater than 50%, the Cmax ([5]; oral, day 7 (lowest)) was 800 nM and the Cmax ([5]; po, day 4) was 1500 nM. The “single dose followed by frequent vomiting” value (dogs) was 17.3 mg/kg and 34.6 mg/kg, the mutagenicity (Ames test) was “not mutagenic” and the “predicted human Vdss” value [6, 10] was 2.7 L/kg. The “predicted human systemic clearance” value [6, 10] was 5.9 mL/min/kg and the human predicted half-life ([6]; one-compartment pharmacokinetic model) was 5.3 h.
